By IC50 is commonly meant the concentration that inhibits the measured activity by half. Read a high IC50 as a need for much substance. By LD50 is commonly meant the dose at which mortality reaches 50%. Read a low LD50 as a more toxic substance.

One data set has as its system SRS-A. As to the kind of experiment: Anti-SRS-A action: ileum contraction induced by crude SRS-A solution. Also on record: species or system guinea pig. As for the experimental part: A piece of lung of guinea pig sensitized with ovalbumin was incubated with antigen ovalbumin at 37° C. for 20 minutes and supernatant was separated in order to use as a crude SRS-A solution.
A piece of ileum of a normal guinea pig was suspended in Tyrode's solution in a Magnus tube and incubated with a solution of the compound to be tested for a predetermined duration. The contraction of the piece of ileum induced by adding the above crude SRS-A solution was compared with that attributed to 10^-6 M histamine dihydrochloride (which was taken as 100). The anti-SRS-A action was shown in terms of the rate of inhibition to the contraction.

For data set [1], the system named is ileum of guinea pig active-sensitized with ovalbumin. The experiment in a line: Anti-Schultz-Dale action: ovalbumin-induced contraction of sensitized ileum. The note with it: 10^-3 M. As for the experimental part: A piece of ileum of guinea pig active-sensitized with ovalbumin with Freund complete adjuvant was suspended in Tyrode's solution in a Magnus tube and incubated with a solution of the compound to be tested for a predetermined duration. The contraction of the piece of ileum induced by applying the ovalubumin was compared with that attributed to 10^-6 M histamine dihydrochloride. The anti-Schultz-Dale action was shown in terms of the rate of inhibition to the contraction.

A further data set has as its system peritoneal mast cell. The experiment in a line: Inhibition of histamine release from mast cell in abdominal cavity of rats by antigen-antibody reaction. Format: cell-based, rat. The note with it: for activity at 1000 µM / activity at 100 µM / activity at 10 µM / activity at 1 µM: Rattus norvegicus, Mast cell, 20 min, DNP-Ascaris 20 microgramms/ml, read-out: Amount of histamine released from peritoneal mast cell (Control=100); for activity at 1000 µM / effect on natural release of histamine (in words): 10^-3 M; for activity at 100 µM: 10^-4 M; for activity at 10 µM: 10^-5 M; for activity at 1 µM: 10^-6 M; for inhibitory activity compared with tranilast (in words): range of 10^-6 M to 10^-3 M. The method, then: Examination was made on the activity of inhibition of histamine release from mast cell by antigen-antibody reaction.
Swine ascaris extract solution was dinitrophenylated according to Aisen's method, dialysed, and lyophilized. The product was administered as antigen together with Bordetella Pertussis vaccine subcutaneously into the foot pad of rat. Eight days later, blood was taken in order to obtain antiserum. The PCA titer for this antiserum in rat was 32 to 64.
Heparin-containing PBS was injected intraperitoneally to rat which was sacrificed by exsanguination, after which the abdomen was well massaged. Then the injected PBS was collected and purified by washing several times by centrifugation. The number of the mast cells contained in the solution was determined and adjusted to the designed concentration. As to method of sensitizing the cell, the above cell suspension (6 ml, 2×10^6 cells/ml) was treated with anti-DNP-Ascaris rat serum (PCA titer 32) (6 ml) and the mixture was incubated in the presence of heparin at 37° C. for 2 hours.
To the sensitized mast cell suspension, the solution of the compound to be tested was added, and the mixture was preliminarily incubated at 37° C. for 12 minutes. After addition of the solution of antigen DNP-Ascaris (final concentration: 20 microgramms/ml), the mixture was further incubated for 20 minutes. After completion of the reaction, the solution was centrifuged (500 G, 10 min.) at a low temperature to obtain a supernatant solution. Histamine contained in the supernatant solution was determined by fluorometry using orthophthalaldehyde method.

The next data set addresses T1, hyaluronidase (Bos taurus, UniProt Q2YDK3).
T1 sequence (Q2YDK3 36-553): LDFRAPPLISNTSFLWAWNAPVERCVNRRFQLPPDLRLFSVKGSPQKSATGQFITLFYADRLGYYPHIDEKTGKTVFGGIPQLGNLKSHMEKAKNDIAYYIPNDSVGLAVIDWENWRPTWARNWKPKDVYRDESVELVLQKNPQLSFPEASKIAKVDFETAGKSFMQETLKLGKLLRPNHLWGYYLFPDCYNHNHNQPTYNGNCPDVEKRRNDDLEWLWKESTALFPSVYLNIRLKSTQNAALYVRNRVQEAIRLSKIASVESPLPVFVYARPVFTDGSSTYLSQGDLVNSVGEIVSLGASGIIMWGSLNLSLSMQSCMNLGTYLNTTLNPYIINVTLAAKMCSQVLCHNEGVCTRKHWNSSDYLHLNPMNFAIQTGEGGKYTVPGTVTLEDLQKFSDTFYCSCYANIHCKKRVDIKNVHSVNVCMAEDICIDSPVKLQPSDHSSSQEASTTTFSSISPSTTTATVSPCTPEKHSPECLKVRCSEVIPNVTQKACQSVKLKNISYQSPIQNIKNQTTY
The experiment in a line: Antihyaluronidase activity (modified Morgan-Elson method, activated by Compound 48/80 or CaCl2). The note with it: hyaluronidase 340 NF unit/ml, 37° C. Format: biochemical. The text has this: In view of the fact that antiallergic agents such as sodium cromoglicate (DSCG), tranilast, etc. inhibit the hyaluronidase activity and that compounds which release histamine from the mast cells such as the […] and polymixin B activate the hyaluronidase, it is considered that the hyaluronidase inhibiting activity can be taken as an index for the antiallergic action. [ct. The 5th Medicinal Chemistry Symposium (Dec. 9 and 10, 1983; Kyoto) Synopsis of Lectures, page 68]. On the basis of such knowledge, the compounds according to the invention were tested for anti-hyaluronidase activity and found to have the excellent activities.
A buffer solution of hyaluronidase (0.1 ml) was taken in a test tube and buffer solutions of various compounds in various concentrations (0.2 ml each) were added. The mixture was incubated at 37° C. for 20 minutes. Then, a buffer solution of activating agent (Compound 48/80 or CaCl2) (0.2 ml) was added up to the total volume of 0.5 ml, and the mixture was incubated at 37° C. for 20 minutes. To this solution, potassium hyaluronate buffer solution (0.5 ml) was added and the mixture was incubated at 37° C. for 40 minutes. After cooling, the solution was neutralized with 0.4N aqueous solution of sodium hydroxide (0.2 ml) to stop the reaction. On the resulting solution, OD585 was determined by modified Morgan-Elson method. A buffer solution or water (0.2 ml) was used as a control in place of the solution of the compounds in the same operation including OD585 measurement. (Final concentration of hyaluronidase was 340 NF unit/ml.)

In data set [2] the test system is passive cutaneous anaphylaxis. As to the kind of experiment: Anti-passive cutaneous anaphylaxis (PCA) activity in rats. Format: in vivo, Wistar strain rats. The note with it: for anti-PCA activity (in words): rat, in vivo; for Average Inhibition Rate (%), Antiserum Dilution: × 16 / Average Inhibition Rate (%), Antiserum Dilution: × 32: 100 mg/kg PO, rats. The method, then: Wistar strain rats were sensitized with ovalbumin using aluminium hydroxide gel and Bordetella Pertussis vaccine as adjuvants. Dilutions of antiserum (16-fold and 32-fold) obtained by collecting blood samples 14 days later were administered subcutaneously in the dorsal skin of the rats of the same strain at the rate of 0.1 ml per spot, and the rats were grown for 48 hours. One hour after peroral administration of the sample solution, a mixture of antigen ovalbumin and Evans-blue dye was administered to the tail venous of the animal according to the ordinary procedure. Thirty minutes later, the animals were sacrificed by exsanguination, and the areas of blue spots (long diameter×short diameter) eliciting on the portion of the antiserum injection at the dorsal skin were measured to obtain the rate of inhibition based on the average value shown by the control animals.

Another data set is described as follows: Acute toxicity. The note with it: mouse, in vivo, mice, one week. The method, then:
As test animals, ddy-strain mice (male) were used. According to the conventional procedure, suspension or solution of test compound was administered to the animals. From the number of the dead animals up to one week after the administration, LD50 values were obtained by Provit method.

Take `COc1ccc(/C=C/C(=O)Nc2ccccc2C(=O)O)cc1OC` [Tranilast, reference compound]: the “anti-SRS-A action (in words)” value in the data set with SRS-A is listed as “no action”. Besides, the “anti-Schultz-Dale action (in words)” value in data set [1] is “no action”. In the data set with peritoneal mast cell, the activity at 1000 µM amounted to 29%, the activity at 100 µM worked out at 67%, the activity at 10 µM was found to be 95% and the activity at 1 µM stood at 95%.
At hyaluronidase, `O=C(C=Cc1ccco1)Nc1cc(Cl)ccc1C(=O)O` [Compound 4] displayed an IC50 of 258 µM.
With `O=C(C=Cc1ccco1)Nc1ccccc1C(=O)O` [Compound 3, 2-[3-(2-furyl)acrylamido]benzoic acid], inhibition against hyaluronidase was half-maximal at 160 µM (IC50). In addition, in the data set with peritoneal mast cell, the “inhibition of histamine release from mast cell (in words)” value (from here on “inhibition of histamine release”) is given as “strong inhibition from 10^-4 M”, the activity at 1000 µM is 0%, the activity at 100 µM was found to be 36% and the activity at 10 µM stood at 85%. Besides, in the data set on peritoneal mast cell, the activity at 1 µM amounted to 95% and the “inhibitory activity compared with tranilast (in words)” value was “stronger inhibitory activity than the control tranilast”. The “anti-PCA activity (in words)” value in data set [2] was “showed the anti-PCA activity”.
As to `O=C(C=Cc1ccsc1)Nc1ccccc1C(=O)O` [Compound 1, 2-[3-(3-thienyl)acrylamido]benzoic acid], the “anti-SRS-A action (in words)” value in the data set on SRS-A was “mild anti-SRS-A action”. For the same compound, the “inhibition of SRS-A induced contraction” value in the data set with SRS-A (10^-3 M) came out at 23.9%. The “inhibition of SRS-A induced contraction” value in the data set on SRS-A (10^-4 M) turned out to be 14.8%. Moreover, the median lethal dose (LD50) at 168 h in “Acute toxicity” (Intravenous) was 438 mg/kg. Also, in the data set “Acute toxicity” (PO), the LD50 at 168 h was 615 mg/kg. Also, in data set [1], the “anti-Schultz-Dale action (in words)” value was “strong anti-Schultz-Dale action” and the “inhibition of contraction (anti-Schultz-Dale)” value amounted to 83.5%. Further, on hyaluronidase, the IC50 worked out at 86 µM. In the data set on peritoneal mast cell, the “inhibition of histamine release” value is “action of inhibiting release of histamine from the mast cell even at the low concentration of 10^-6 M”, the “effect on natural release of histamine (in words)” value was “inhibited natural release of histamine”, the activity at 1000 µM was -88% and the activity at 100 µM was determined as 11%. Further, in the data set with peritoneal mast cell, the activity at 10 µM came to 36%, the activity at 1 µM is 31% and the “inhibitory activity compared with tranilast (in words)” value was “stronger inhibitory activity than the control tranilast”. For the same compound, in data set [2], the “Average Inhibition Rate (%), Antiserum Dilution: × 16” value was found to be 31.6% and the “Average Inhibition Rate (%), Antiserum Dilution: × 32” value is reported as 41.8%.
For `Cn1cccc1C=CC(=O)Nc1ccccc1C(=O)O` [Compound 6], on hyaluronidase, the IC50 is 120 µM.
In the case of `O=C(C=Cc1cccs1)Nc1ccccc1C(=O)O` [Compound 2, 2-[3-(2-thienyl)acrylamido]benzoic acid], in the data set with SRS-A, the “anti-SRS-A action (in words)” value is recorded as “mild anti-SRS-A action”. In addition, the “inhibition of SRS-A induced contraction” value in the data set with SRS-A (10^-3 M) is on record as 11.0%. The LD50 at 168 h in “Acute toxicity” (Intravenous) stood at 277 mg/kg. In addition, the LD50 at 168 h in the data set “Acute toxicity” (PO) was 400 mg/kg. In data set [1], the “anti-Schultz-Dale action (in words)” value was “strong anti-Schultz-Dale action” and the “inhibition of contraction (anti-Schultz-Dale)” value is reported as 100%. This compound also had an IC50 on hyaluronidase of 140 µM. For the same compound, in the data set with peritoneal mast cell, the “inhibition of histamine release” value is recorded as “action of inhibiting release of histamine from the mast cell even at the low concentration of 10^-6 M”, the “effect on natural release of histamine (in words)” value is given as “inhibited natural release of histamine”, the activity at 1000 µM was -130% and the activity at 100 µM was -70%. Moreover, in the data set with peritoneal mast cell, the activity at 10 µM worked out at 24%, the activity at 1 µM amounted to 11% and the “inhibitory activity compared with tranilast (in words)” value is listed as “stronger inhibitory activity than the control tranilast”. Also, in data set [2], the “Average Inhibition Rate (%), Antiserum Dilution: × 16” value came out at 26.7%; the “Average Inhibition Rate (%), Antiserum Dilution: × 32” value was determined as 21.2%; the “anti-PCA activity (in words)” value is listed as “showed the anti-PCA activity”.
On hyaluronidase, `O=C(C=Cc1ccco1)Nc1cc([N+](=O)[O-])ccc1C(=O)O` [Compound 5] displayed an IC50 of 300 µM.

Source of the values: US5006548A, “Acrylamidobenzoic acid derivatives and their use” (Sawai Pharmaceutical Co., Ltd., priority 1984, dated 1991).
